The source of these data is patent US8629144B2, “Polymorphic and hydrate forms, salts and process for preparing 6-{difluoro[6-(1-methyl-1H-pyrazol-4-yl)[1,2,4]triazolo[4,3-b]pyridazin-3-yl]methyl}quinoline” (Janssen Pharmaceutica NV, priority 2007, dated 2014).

Data set [1] in a line: Water adsorption (hygroscopicity) of salts of compound (I). The class given is physicochemical. The protocol:
Free base of compound (I) (3 g; 7.95 mmol) was dissolved in absolute ethanol (40 mL) and heated to 78° C. An acid (HCl 6M in 2-propanol, 2.0 ml (12 mmol); HBr 48% in water, 0.98 mL (8.75 mmol); methane sulphonic acid, 917 mg (9.54 mmol); ethane sulphonic acid, 1.05 g (9.54 mmol) or p-toluene sulphonic acid monohydrate (1.66 g (8.75 mmol)) was added to the hot reaction mixture. The reaction mixture was allowed to cool to room temperature. The resulting precipitate was filtered off, washed with ethanol and dried under vacuum at 60° C.
The obtained solids were analysed by acid titration, Karl-Fisher titration and HPLC. A physical characterisation was performed (DSC, TGA, XRD and IR, DVS).

Data set [2] in a line: Water solubility of salts of compound (I). It counts as physicochemical. Conditions: 24 hours at 20° C. The protocol: An excess of different salts of compound (I) was agitated with water during 24 hours at 20° C. Following filtration, the concentration of compound (I) in the solution was determined by UV spectrometry.
Another data set deals with T1, c-Met kinase (Homo sapiens, UniProt P08581).
T1 construct: His-6 (N); purchased Panvera Lot 40047X; host or cells: Sf9 insect cells (baculovirus), for the His6-MetKin construct scaled up at Pan Vera
T1 sequence (P08581 956-1390 limits assumed): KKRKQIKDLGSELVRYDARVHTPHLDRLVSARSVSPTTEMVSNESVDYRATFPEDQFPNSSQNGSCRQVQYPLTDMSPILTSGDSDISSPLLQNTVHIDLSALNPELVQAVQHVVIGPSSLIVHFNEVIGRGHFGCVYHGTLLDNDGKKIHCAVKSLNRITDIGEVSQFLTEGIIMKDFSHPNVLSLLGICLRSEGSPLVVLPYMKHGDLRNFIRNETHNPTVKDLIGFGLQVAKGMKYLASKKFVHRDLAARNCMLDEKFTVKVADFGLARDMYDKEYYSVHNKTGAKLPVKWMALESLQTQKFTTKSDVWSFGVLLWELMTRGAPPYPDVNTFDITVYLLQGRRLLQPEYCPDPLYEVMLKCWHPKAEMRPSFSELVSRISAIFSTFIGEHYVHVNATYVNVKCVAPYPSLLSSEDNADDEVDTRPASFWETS
Briefly: c-Met autophosphorylation assay with radioactive ATP. It counts as biochemical. The note with it: [33P]-γ-ATP, 60 min room temperature, read-out: IC50 for c-Met kinase inhibition. The protocol: The present autophosphorylation assay uses radioactive ATP to measure the incorporation of phosphate upon c-Met autophosphorylation. The assay procedure for screening is as follows.
c-Met enzyme (purchased from Panvera, Lot 40047X, 2.4 mg/ml); “Assay buffer” (13.3 mM MOPS pH 7; 0.33 mM EDTA); “Enzyme buffer” (20 mM MOPS pH 7; 1 mM EDTA; 0.01% Brij 35; 5% glycerol; 0.1% beta mercapto-EtOH); 100 mM MgAc; 3% phosphoric acid; 75 mM phosphoric acid; 1 mM ATP-stock; [^33P]-γ-ATP (NEN, NEG602H); round-bottom 96-well plates (Corning, 3799); Filtermat P30-filters (Perkin Elmer); “Enzyme mix” (698.80 μl of Enzyme buffer as above+1.17 μl of c-Met enzyme as above); “Substrate mix” (946.00 μl of 100 mM MgAc+50.00 μl ATP (0.1 mM)+4.00 μl [^33P]-γ-ATP as above).
• 1. Distribute 15 μl assay buffer per well. • 2. Add 0.5 μl dilution of tested c-Met inhibitor (e.g., compound (I) or its forms or salts) in DMSO. • 3. Add 5 μl Enzyme mix per well (control: Enzyme buffer in blanc). • 4. Add 5 μl Substrate mix per well. • 5. Incubate at room temperature for 60 min. • 6. Stop reaction with 3% phosphoric acid, 5 μl per well • 7. Shake plate • 8. Spot 5 μl from a well to filtermat P30. • 9. […] Expose the filter to phosphor storage cassette overnight on low energy phosphor storage plate, and detect and quantify the signal using a suitable phosphorimager (herein, Typhoon) Results

Data set [3] can be described thus: Absorption and plasma kinetics after oral administration of salts to rat. Conditions: male, SD, rat, plasma, po.
Method: Five male SD rats (225±11 g) were used per salt form. From each rat a complete plasma concentration time profile was obtained. Tap water and food were available ad libitum. The test involved salts of compound (I) with HBr, HCl, methanesulphonic acid (mesylate), ethanesulphonic acid (esylate) or p-toluenesulphonic acid (tosylate). The individual salts were dispersed in a 0.5% methocel suspension to a final concentration of 1 mg base eq./ml. The formulations were stored at room temperature.
Administration was oral by gastric intubation: 10 ml/kg to obtain a dose of 10 mg base eq./kg.
Blood samples were collected 30 min, 1, 2, 4, 7 and 24 h after dose administration.
Blood was collected by multiple sampling from a tail vein into Multivette® 600 K3E tubes (Sarstedt). Samples were placed immediately on melting ice and plasma was obtained following centrifugation at 4° C. for 10 minutes at approximately 1900×g. All samples were shielded from daylight and stored at ≦−18° C. prior to analysis.
A limited pharmacokinetic analysis was performed using WinNonlin™ Professional (Version 5.1). A non-compartmental analysis using the lin/log trapezoidal rule with lin/log interpolation was used for all data.
In a further data set the test system is U87MG tumors. Briefly: U87MG glioblastoma tumour xenograft model. It counts as in vivo, athymic nude mice. Conditions: for Decrease of mean tumor volume: Day 12, p<0.01. The protocol: The U87MG glioblastoma cell line (Piedmont Research Center LLC) expresses the c-Met receptor and responds to […] (HGF). This study investigated whether treatment with an inhibitor of c-Met is efficacious against the U87MG glioblastoma tumor xenograft model. This study utilized a tumor growth inhibition (TGI) assay to test per os (p.o.) compound monotherapy in groups of fifteen nude mice. A control group was treated with vehicle, 20% Hydroxypropyl Beta-Cyclodextrin (HPBCD). All treatments began on Day 1 (D1) in mice bearing established subcutaneous (s.c.) U87MG tumors.
Female athymic nude mice (Harlan) were 10-11 weeks old with a BW range of 18.1-25.0 g on D1 of the study. The animals were fed ad libitum water (reverse osmosis, 1 ppm Cl) and NIH 31 Modified and Irradiated Lab Diet® consisting of 18.0% crude protein, 5.0% crude fat, and 5.0% crude fiber. The mice were housed on irradiated ALPHA-Dri® bed-o-cobs® Laboratory Animal Bedding in static microisolators on a 12-hour light cycle at 21-22° C. (70-72° F.) and 40-60% humidity. All animals were housed in a Laboratory Animal Medicine facility that is fully accredited by the American Association for Assessment and Accreditation of Laboratory Animal Care (AAALAC). All procedures involving animals were conducted in compliance with the NIH Guide for the Care and Use of Laboratory Animals and all protocols were approved by an Internal Animal Care and Use Committee (IACUC).
Xenografts were initiated from U87MG human glioblastoma tumor fragments maintained by serial transplantation in athymic nude mice. Each test mouse received a subcutaneous U87MG tumor fragment (1 mm^3) implanted in the right flank, and the growth of tumors was monitored as the average size approached 200 mm^3. Twelve days later, on Day 1 of the study, the animals were sorted into 4 groups (n=12-15 mice/group) with individual tumor volumes ranging from 172-352 mm^3 and group mean tumor volumes of 216 mm^3. Tumor volume was calculated using the formula: […]
Dosing solutions of compounds of the present invention were prepared fresh weekly in a vehicle consisting of 20% Hydroxypropyl Beta-Cyclodextrin (HPBCD) in water. In all groups, the dosing volume of 0.2 mL/20-g mouse was scaled to the body weight of each animal. Doses were given to allow for the HCl salt form of the compound.
TGI was calculated from the difference between the median tumor volumes of vehicle-treated and drug-treated mice, expressed as a percentage of the median tumor volume of the vehicle-treated control group, by the following relation:
The MTV (n) is defined as the median tumor volume (MTV) for the number of animals, n, remaining in the study on that day.
Animals were weighed daily for the first five days of the study and then twice weekly. The mice were examined frequently for overt signs of any adverse, drug-related side effects, and clinical signs of toxicity were recorded when observed. Acceptable toxicity is defined as a group mean body-weight (BW) loss of less than 20% during the study, and not more than one treatment-related (TR) death among ten animals. A death is classified as TR if it is attributable to treatment side effects as evidenced by clinical signs and/or necropsy, or due to unknown causes during the dosing period or within 10 days of the last dose. A death is classified as non treatment-related (NTR) if there is no evidence that the death was related to drug side effects. […]

In the next data set the test system is S114 tumors. Kind of data set: S114 tumor model. The class given is in vivo, athymic nude mice. The note with it: 100 mg/kg p.o. q.d., four consecutive days. The protocol: Female athymic nude mice (CD-1, nu/nu, 9-10 weeks old) were obtained from Charles River Laboratories (Wilmington, Mass.) and were maintained according to NIH standards. All mice were group housed (5 mice/cage) under clean-room conditions in sterile micro-isolator cages on a 12-hour light/dark cycle in a room maintained at 21-22° C. and 40-50% humidity. Mice were fed irradiated standard rodent diet and water ad libitum. All animals were housed in a Laboratory Animal Medicine facility that is fully accredited by the American Association for Assessment and Accreditation of Laboratory Animal Care (AAALAC). All procedures involving animals were conducted in compliance with the NIH Guide for the Care and Use of Laboratory Animals and all protocols were approved by an Internal Animal Care and Use Committee (IACUC).
The murine NIH 3T3 derived cell line S114, which has been engineered to over-express both […] (HGF) and the human c-Met receptor, was propagated in DMEM media (Life Technologies, Bethesda, Md.). Immediately prior to injection, cells were washed counted and resuspended in PBS. Female athymic nude mice weighing no less than 20-21 grams were inoculated subcutaneously in the left inguinal region of the thigh with 5×10^6 cells in a delivery volume of 0.1 mL. Tumors were allowed to grow to for five days.
Mice were dosed orally at 100 mg/kg compound in 20% HPBCD or with vehicle (20% HPBCD, control group). Dosing was continued for 4 consecutive days. Compounds of the invention were prepared fresh daily as a clear solution in 20% HPBCD and administered as described above. Body weight was measured at the end of the study and a loss of body weight >10% was used as an indication of lack of compound tolerability. Unacceptable toxicity was defined as body weight loss >20% during the study. Mice were closely examined daily at each dose for overt clinical signs of adverse, drug-related side effects.
On the day of study termination, a final tumor volume and final body weight were obtained on each animal. […]

Several values for one entry are separate records, joined by “and”; a condition that tells them apart may be missing. Identical values can stand only once. Counter-ions that a name gives are not always drawn.

Consider `Cn1cc(-c2ccc3nnc(C(F)(F)c4ccc5ncccc5c4)n3n2)cn1` [HCl salt], for which, in data set [1], the Hygroscopicity result is “hygroscopic”. The Water adsorbed entry in data set [1] (dried 1 h at 25° C. under dry nitrogen flow, depending on the atmospheric humidity) is “up to 11.4%”. The “Measured pH” value in data set [2] (saturated solution in water) is recorded as “pH = 1.8”. Also, the thermodynamic solubility (as a rule, the concentration in solution at equilibrium with solid) at 24 h in data set [2] (water, UV spectrometry) was 380 µg/mL. Further, on c-Met kinase, the IC50 (usually the concentration needed to halve the response being measured) was roughly 13.2 nM. In data set [3] (10 mg base eq./kg), the concentration at 0.5 h amounted to 3090 ± 235 ng/mL, the concentration at 1 h stood at 4210 ± 685 ng/mL, the concentration at 2 h stood at 4290 ± 803 ng/mL and the concentration at 4 h was found to be 2710 ± 706 ng/mL. Also, in data set [3] (10 mg base eq./kg), the concentration at 7 h amounted to 1940 ± 702 ng/mL and the concentration at 24 h amounted to 56.1 ± 16.6 ng/mL. In addition, in data set [3] (10 mg/kg), the AUC0-inf is 29900 ± 7260 ng·h/mL; the area under the curve AUC(0-t) (as a rule, the area under the concentration-time curve up to a stated or last time point) was 29600 ± 7220 ng·h/mL; the Cmax (in general, the maximum level reached in the sampled fluid or tissue) worked out at 4430 ± 683 ng/mL; the Tmax (usually the time from dosing to the highest level) was determined as 1.6 ± 0.5 h. For the same molecule, the half-life – broadly, how long it takes for the measured level to halve – in data set [3] (10 mg/kg) is 3.5 ± 0.3 h.

Turning to `Cn1cc(-c2ccc3nnc(C(F)(F)c4ccc5ncccc5c4)n3n2)cn1` [Compound (I), 6-{difluoro[6-(1-methyl-1H-pyrazol-4-yl)[1,2,4]triazolo[4,3-b]pyridazin-3-yl]methyl}quinoline], the IC50 at c-Met kinase is roughly 7.01 nM. Also, the “Decrease of mean tumor volume” value in the data set on U87MG tumors (25 mg/kg p.o. (q.d. day 1, b.i.d. to day 12)) is on record as 94%; with U87MG tumors (50 mg/kg p.o. (b.i.d. 7 days, 24-hr pause, q.d. to day 12)), 96%; with U87MG tumors (75 mg/kg p.o. (b.i.d. 7 days, 24-hr pause, q.d. to day 12)) it was 97%. For the same molecule, in the data set on U87MG tumors (p.o. 25, 50 and 75 mg/kg, all doses, p<0.01), the “Tumor growth inhibition of U87MG tumors” value is “statistically significant”. Further, the Tumor regression entry in the data set on U87MG tumors (p.o. 25, 50 and 75 mg/kg, all three doses) was “Tumor regression was also observed”. The “S114 tumor regression, mice responding” value in the data set with S114 tumors is “regressed in all five mice”. Further, the “Mice with tumors regressed to non-palpable, non-detectable” value in the data set with S114 tumors (end of study) is recorded as “three of the five mice”. For the same molecule, the Final tumour weights with S114 tumors (individual mice) was 0.017 g (2×) and no tumour (3×).
